# Test results published in the kinase profiling compilation of Christmann-Franck et al. (2016).
# Legend:
# Test in all cases: Caliper, Mobility shift assay off-chip
# SRMS (human) = SRMS (human) (UniProt Q9H3Y6)
# NEK6 (human) = NEK6 (human) (UniProt Q9HC98)
# CDC42BPB (human) = CDC42BPB (human) (UniProt Q9Y5S2)
# CDK7 (human) = CDK7 (human) (UniProt P50613)
# PDK4 (human) = PDK4 (human) (UniProt Q16654)
# BTK (human) = BTK (human) (UniProt Q06187)
# EPHA2 (human) = EPHA2 (human) (UniProt P29317)
# EPHA3 (human) = EPHA3 (human) (UniProt P29320)
# PIM1 (human) = PIM1 (human) (UniProt P11309)
# RPS6KA6 KD1 KD2 (human) = RPS6KA6 KD1 KD2 (human) (UniProt Q9UK32)
# TAB1 (human) = TAB1 (human) (UniProt Q15750)
# FES (human) = FES (human) (UniProt P07332)
# PRKCZ (human) = PRKCZ (human) (UniProt Q05513)
# MINK1 (human) = MINK1 (human) (UniProt Q8N4C8)
# MAP4K2 (human) = MAP4K2 (human) (UniProt Q12851)
# STK38L (human) = STK38L (human) (UniProt Q9Y2H1)
# ROCK1 (human) = ROCK1 (human) (UniProt Q13464)
# AKT1 (human) = AKT1 (human) (UniProt P31749)
# PHKG1 (human) = PHKG1 (human) (UniProt Q16816)
# PHKG2 (human) = PHKG2 (human) (UniProt P15735)
# RPS6KA5 KD1 KD2 (human) = RPS6KA5 KD1 KD2 (human) (UniProt O75582)
# STK10 (human) = STK10 (human) (UniProt O94804)
# TEK (human) = TEK (human) (UniProt Q02763)
# NIM1 (human) = NIM1 (human) (UniProt Q8IY84)
# SPHK1 (human) = SPHK1 (human) (UniProt Q9NYA1)
# NEK2 (human) = NEK2 (human) (UniProt P51955)
# PRKACA (human) = PRKACA (human) (UniProt P17612)
# TBK1 (human) = TBK1 (human) (UniProt Q9UHD2)
# ALK NPM1 (human) = ALK NPM1 (human) (UniProt P06748+Q9UM73)
# SGK1 (human) = SGK1 (human) (UniProt O00141)
# CLK2 (human) = CLK2 (human) (UniProt P49760)
# PTK2 (human) = PTK2 (human) (UniProt Q05397)
# FRK (human) = FRK (human) (UniProt P42685); conditions: compound 0.2 µM
# Chain of NEK2 (human) (P51955 whole entry, looked up): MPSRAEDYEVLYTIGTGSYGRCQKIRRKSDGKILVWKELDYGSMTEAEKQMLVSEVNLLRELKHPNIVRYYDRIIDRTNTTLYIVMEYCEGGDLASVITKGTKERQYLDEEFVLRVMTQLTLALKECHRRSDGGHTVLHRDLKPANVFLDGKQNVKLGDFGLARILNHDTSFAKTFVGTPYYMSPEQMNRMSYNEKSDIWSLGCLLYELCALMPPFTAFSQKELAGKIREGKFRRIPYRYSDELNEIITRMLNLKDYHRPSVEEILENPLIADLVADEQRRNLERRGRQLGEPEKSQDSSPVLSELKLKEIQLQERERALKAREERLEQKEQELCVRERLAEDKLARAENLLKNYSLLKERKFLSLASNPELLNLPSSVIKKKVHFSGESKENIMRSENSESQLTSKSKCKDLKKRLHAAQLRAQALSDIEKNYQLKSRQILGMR
# Chain of CDC42BPB (human) (Q9Y5S2 whole entry, looked up): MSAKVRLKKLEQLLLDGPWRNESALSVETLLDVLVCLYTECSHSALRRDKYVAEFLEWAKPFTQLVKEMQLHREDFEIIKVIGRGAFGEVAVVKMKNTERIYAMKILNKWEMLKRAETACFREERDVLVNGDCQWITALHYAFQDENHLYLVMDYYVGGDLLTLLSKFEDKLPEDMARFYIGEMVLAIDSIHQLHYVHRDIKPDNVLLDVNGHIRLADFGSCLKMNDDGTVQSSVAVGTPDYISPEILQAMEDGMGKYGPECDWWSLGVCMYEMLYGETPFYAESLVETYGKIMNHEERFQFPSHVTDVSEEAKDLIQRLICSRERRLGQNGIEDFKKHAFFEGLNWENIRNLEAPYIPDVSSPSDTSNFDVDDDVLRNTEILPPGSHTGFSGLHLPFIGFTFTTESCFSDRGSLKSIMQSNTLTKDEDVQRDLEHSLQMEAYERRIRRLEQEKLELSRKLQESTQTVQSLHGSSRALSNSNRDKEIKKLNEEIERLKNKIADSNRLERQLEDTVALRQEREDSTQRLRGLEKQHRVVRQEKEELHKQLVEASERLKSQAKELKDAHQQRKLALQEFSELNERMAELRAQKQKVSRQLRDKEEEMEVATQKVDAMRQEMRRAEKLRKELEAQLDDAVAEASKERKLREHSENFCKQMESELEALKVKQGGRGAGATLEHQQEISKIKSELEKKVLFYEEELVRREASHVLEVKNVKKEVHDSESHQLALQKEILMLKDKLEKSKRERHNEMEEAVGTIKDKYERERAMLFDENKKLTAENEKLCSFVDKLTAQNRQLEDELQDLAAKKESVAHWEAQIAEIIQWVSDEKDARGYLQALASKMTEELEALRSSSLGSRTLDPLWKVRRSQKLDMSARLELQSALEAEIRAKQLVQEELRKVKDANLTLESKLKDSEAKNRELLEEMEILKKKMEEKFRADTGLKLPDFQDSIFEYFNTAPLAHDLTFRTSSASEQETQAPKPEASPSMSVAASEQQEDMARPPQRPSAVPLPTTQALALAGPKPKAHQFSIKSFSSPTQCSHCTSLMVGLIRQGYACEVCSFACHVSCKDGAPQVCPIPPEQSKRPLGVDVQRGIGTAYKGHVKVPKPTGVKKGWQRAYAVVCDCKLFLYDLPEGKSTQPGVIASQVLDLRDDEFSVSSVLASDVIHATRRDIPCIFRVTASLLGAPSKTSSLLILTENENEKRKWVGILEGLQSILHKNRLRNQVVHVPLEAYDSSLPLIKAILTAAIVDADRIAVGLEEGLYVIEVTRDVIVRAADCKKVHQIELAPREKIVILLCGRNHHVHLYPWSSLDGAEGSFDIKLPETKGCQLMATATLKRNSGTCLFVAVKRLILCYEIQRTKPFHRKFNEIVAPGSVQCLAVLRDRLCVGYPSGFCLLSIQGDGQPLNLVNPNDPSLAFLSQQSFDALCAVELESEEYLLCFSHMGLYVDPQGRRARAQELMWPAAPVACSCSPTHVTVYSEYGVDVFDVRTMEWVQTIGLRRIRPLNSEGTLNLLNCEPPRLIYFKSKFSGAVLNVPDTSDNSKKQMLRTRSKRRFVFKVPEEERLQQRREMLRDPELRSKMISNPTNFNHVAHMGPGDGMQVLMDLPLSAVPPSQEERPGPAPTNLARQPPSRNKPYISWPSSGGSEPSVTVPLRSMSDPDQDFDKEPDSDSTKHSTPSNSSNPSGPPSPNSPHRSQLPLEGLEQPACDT
# Chain of PHKG1 (human) (Q16816 whole entry, looked up): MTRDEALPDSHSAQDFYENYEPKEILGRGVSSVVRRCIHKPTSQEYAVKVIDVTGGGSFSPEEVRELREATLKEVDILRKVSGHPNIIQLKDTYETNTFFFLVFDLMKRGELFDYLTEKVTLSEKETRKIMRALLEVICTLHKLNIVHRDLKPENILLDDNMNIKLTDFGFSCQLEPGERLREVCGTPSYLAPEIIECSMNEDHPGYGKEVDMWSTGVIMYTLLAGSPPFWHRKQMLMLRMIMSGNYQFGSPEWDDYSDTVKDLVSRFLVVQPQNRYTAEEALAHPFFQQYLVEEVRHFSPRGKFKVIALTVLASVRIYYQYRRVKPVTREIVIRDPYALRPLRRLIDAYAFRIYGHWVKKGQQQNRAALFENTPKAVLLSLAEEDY
# Chain of SRMS (human) (Q9H3Y6 whole entry, looked up): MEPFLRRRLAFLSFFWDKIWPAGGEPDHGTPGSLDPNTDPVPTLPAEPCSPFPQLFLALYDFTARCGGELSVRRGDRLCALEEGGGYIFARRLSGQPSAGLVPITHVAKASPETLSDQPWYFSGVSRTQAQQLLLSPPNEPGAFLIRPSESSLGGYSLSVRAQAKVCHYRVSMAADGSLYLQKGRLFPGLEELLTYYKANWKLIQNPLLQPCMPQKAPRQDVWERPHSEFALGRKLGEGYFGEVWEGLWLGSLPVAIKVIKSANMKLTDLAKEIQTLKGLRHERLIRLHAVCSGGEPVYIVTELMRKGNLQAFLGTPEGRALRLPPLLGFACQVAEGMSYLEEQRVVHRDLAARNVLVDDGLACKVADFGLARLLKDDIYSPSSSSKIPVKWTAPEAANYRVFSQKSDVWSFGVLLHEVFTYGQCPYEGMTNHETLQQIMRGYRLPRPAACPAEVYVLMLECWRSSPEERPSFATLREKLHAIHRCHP
# Chain of CLK2 (human) (P49760 whole entry, looked up): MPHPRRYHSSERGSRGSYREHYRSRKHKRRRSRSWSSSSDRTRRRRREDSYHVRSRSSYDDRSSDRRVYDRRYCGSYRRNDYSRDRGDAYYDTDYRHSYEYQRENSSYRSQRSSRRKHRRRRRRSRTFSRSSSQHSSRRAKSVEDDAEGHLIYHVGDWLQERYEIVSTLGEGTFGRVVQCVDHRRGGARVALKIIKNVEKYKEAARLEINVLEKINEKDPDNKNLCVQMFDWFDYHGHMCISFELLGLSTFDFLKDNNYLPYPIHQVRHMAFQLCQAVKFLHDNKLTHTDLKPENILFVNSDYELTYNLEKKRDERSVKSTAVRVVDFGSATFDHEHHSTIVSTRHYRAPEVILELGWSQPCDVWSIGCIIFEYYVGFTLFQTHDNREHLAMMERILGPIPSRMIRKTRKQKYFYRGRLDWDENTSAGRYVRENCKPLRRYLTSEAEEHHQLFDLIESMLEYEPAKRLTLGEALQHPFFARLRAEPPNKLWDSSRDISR
# Chain of TEK (human) (Q02763 whole entry, looked up): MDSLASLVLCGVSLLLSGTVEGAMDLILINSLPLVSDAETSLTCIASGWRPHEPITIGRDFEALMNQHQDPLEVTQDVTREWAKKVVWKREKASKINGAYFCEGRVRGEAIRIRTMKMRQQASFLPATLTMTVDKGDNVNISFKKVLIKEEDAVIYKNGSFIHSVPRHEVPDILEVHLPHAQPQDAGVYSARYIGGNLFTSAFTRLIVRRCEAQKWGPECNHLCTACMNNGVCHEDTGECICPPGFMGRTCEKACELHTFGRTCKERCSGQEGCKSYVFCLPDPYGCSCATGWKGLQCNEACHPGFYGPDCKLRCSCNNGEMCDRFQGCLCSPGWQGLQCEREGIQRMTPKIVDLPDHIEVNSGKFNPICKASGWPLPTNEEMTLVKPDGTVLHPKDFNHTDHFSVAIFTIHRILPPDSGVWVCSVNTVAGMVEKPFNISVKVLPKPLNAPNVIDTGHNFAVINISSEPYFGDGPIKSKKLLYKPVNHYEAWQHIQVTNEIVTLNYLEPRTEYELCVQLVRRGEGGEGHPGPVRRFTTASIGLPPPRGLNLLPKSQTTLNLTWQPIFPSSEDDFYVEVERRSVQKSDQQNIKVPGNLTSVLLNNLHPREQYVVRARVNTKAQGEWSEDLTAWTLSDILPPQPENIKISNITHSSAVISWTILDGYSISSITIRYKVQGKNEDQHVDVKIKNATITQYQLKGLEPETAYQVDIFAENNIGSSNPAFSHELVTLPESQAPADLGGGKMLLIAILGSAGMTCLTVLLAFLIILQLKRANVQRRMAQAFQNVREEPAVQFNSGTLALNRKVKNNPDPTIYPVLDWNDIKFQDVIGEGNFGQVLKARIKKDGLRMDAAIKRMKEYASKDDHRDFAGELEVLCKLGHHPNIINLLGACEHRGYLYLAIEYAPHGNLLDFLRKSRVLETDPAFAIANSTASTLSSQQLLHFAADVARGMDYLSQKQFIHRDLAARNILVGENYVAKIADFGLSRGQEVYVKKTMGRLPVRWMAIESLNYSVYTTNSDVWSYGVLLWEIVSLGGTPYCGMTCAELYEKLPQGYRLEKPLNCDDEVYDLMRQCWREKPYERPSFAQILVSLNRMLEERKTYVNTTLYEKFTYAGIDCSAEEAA
# Chain of SPHK1 (human) (Q9NYA1 whole entry, looked up): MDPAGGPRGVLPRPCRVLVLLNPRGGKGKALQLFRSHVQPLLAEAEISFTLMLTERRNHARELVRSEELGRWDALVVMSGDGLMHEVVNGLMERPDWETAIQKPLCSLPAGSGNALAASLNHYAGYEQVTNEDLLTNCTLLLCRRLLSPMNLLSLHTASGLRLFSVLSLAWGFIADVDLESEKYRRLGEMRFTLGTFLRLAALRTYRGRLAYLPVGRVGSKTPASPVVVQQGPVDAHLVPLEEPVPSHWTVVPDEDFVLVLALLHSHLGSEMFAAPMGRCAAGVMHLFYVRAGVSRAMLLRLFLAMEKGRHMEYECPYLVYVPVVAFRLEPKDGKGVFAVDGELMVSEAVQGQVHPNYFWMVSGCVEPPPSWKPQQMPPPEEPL
smiles,measurement,setting,value
CNC(=O)c1cc(Oc2ccc(NC(=O)Nc3ccc(Cl)c(C(F)(F)F)c3)cc2)ccn1,inhibition,SRMS (human); compound 0.02 µM,-0.4%
same,inhibition,SRMS (human); compound 0.2 µM,4.1%
same,inhibition,NEK6 (human); compound 0.02 µM,-5%
same,inhibition,NEK6 (human); compound 0.2 µM,-6.1%
same,inhibition,CDC42BPB (human); compound 0.02 µM,-3.1%
same,inhibition,CDC42BPB (human); compound 0.2 µM,0.8%
same,inhibition,CDK7 (human); compound 0.02 µM,-5.5%
same,inhibition,CDK7 (human); compound 0.2 µM,-7%
same,inhibition,PDK4 (human); compound 0.02 µM,1.9%
same,inhibition,PDK4 (human); compound 0.2 µM,3.4%
same,inhibition,BTK (human); compound 0.02 µM,-0.7%
same,inhibition,BTK (human); compound 0.2 µM,14.6%
same,inhibition,EPHA2 (human); compound 0.02 µM,-2.7%
same,inhibition,EPHA2 (human); compound 0.2 µM,9.8%
same,inhibition,EPHA3 (human); compound 0.02 µM,-2.6%
same,inhibition,EPHA3 (human); compound 0.2 µM,17%
same,inhibition,PIM1 (human); compound 0.02 µM,1%
same,inhibition,PIM1 (human); compound 0.2 µM,-3.6%
same,inhibition,RPS6KA6 KD1 KD2 (human); compound 0.02 µM,-2%
same,inhibition,RPS6KA6 KD1 KD2 (human); compound 0.2 µM,-6.2%
same,inhibition,TAB1 (human); compound 0.02 µM,4.8%
same,inhibition,TAB1 (human); compound 0.2 µM,14.3%
same,inhibition,FES (human); compound 0.02 µM,-3.2%
same,inhibition,FES (human); compound 0.2 µM,7.2%
same,inhibition,PRKCZ (human); compound 0.02 µM,0%
same,inhibition,PRKCZ (human); compound 0.2 µM,11.3%
same,inhibition,MINK1 (human); compound 0.02 µM,-3.3%
same,inhibition,MINK1 (human); compound 0.2 µM,4.1%
same,inhibition,MAP4K2 (human); compound 0.02 µM,3.2%
same,inhibition,MAP4K2 (human); compound 0.2 µM,11.5%
same,inhibition,STK38L (human); compound 0.02 µM,-3.6%
same,inhibition,STK38L (human); compound 0.2 µM,4.2%
same,inhibition,ROCK1 (human); compound 0.02 µM,-1.1%
same,inhibition,ROCK1 (human); compound 0.2 µM,6.8%
same,inhibition,AKT1 (human); compound 0.02 µM,-2.8%
same,inhibition,AKT1 (human); compound 0.2 µM,-1.4%
same,inhibition,PHKG1 (human); compound 0.02 µM,-3.6%
same,inhibition,PHKG1 (human); compound 0.2 µM,-2%
same,inhibition,PHKG2 (human); compound 0.02 µM,-3.1%
same,inhibition,PHKG2 (human); compound 0.2 µM,-2.3%
same,inhibition,RPS6KA5 KD1 KD2 (human); compound 0.02 µM,-2.5%
same,inhibition,RPS6KA5 KD1 KD2 (human); compound 0.2 µM,0.1%
same,inhibition,STK10 (human); compound 0.02 µM,3.3%
same,inhibition,STK10 (human); compound 0.2 µM,36.1%
same,inhibition,TEK (human); compound 0.02 µM,-2.6%
same,inhibition,TEK (human); compound 0.2 µM,9.5%
same,inhibition,NIM1 (human); compound 0.02 µM,-3.6%
same,inhibition,NIM1 (human); compound 0.2 µM,6.4%
same,inhibition,SPHK1 (human); compound 0.02 µM,-3.1%
same,inhibition,SPHK1 (human); compound 0.2 µM,3.2%
same,inhibition,NEK2 (human); compound 0.02 µM,-2.3%
same,inhibition,NEK2 (human); compound 0.2 µM,8.8%
same,inhibition,PRKACA (human); compound 0.02 µM,-4.7%
same,inhibition,PRKACA (human); compound 0.2 µM,0.7%
same,inhibition,TBK1 (human); compound 0.02 µM,-1.4%
same,inhibition,TBK1 (human); compound 0.2 µM,-1.1%
same,inhibition,ALK NPM1 (human); compound 0.02 µM,-6%
same,inhibition,ALK NPM1 (human); compound 0.2 µM,5%
same,inhibition,SGK1 (human); compound 0.02 µM,-0.6%
same,inhibition,SGK1 (human); compound 0.2 µM,8.5%
same,inhibition,CLK2 (human); compound 0.02 µM,-0.7%
same,inhibition,CLK2 (human); compound 0.2 µM,-2.1%
same,inhibition,PTK2 (human); compound 0.02 µM,-4.6%
same,inhibition,PTK2 (human); compound 0.2 µM,-3.4%
CCN(CC)CCNC(=O)c1c(C)[nH]c(/C=C2\C(=O)Nc3ccc(F)cc32)c1C,inhibition,SRMS (human); compound 0.2 µM,-0.6%
same,inhibition,SRMS (human); compound 4.0 µM,24%
same,inhibition,NEK6 (human); compound 0.2 µM,-1.5%
same,inhibition,NEK6 (human); compound 4.0 µM,-6.8%
same,inhibition,CDC42BPB (human); compound 0.2 µM,-0.5%
same,inhibition,CDC42BPB (human); compound 4.0 µM,14.2%
same,inhibition,CDK7 (human); compound 0.2 µM,87.6%
same,inhibition,CDK7 (human); compound 4.0 µM,98.8%
same,inhibition,PDK4 (human); compound 0.2 µM,1.6%
same,inhibition,PDK4 (human); compound 4.0 µM,22.6%
same,inhibition,BTK (human); compound 0.2 µM,2.7%
same,inhibition,BTK (human); compound 4.0 µM,51.2%
same,inhibition,EPHA2 (human); compound 0.2 µM,-1.9%
same,inhibition,EPHA2 (human); compound 4.0 µM,24.9%
same,inhibition,EPHA3 (human); compound 0.2 µM,-0.2%
same,inhibition,EPHA3 (human); compound 4.0 µM,21.2%
same,inhibition,PIM1 (human); compound 0.2 µM,-0.2%
same,inhibition,PIM1 (human); compound 4.0 µM,19.2%
same,inhibition,RPS6KA6 KD1 KD2 (human); compound 0.2 µM,80.7%
same,inhibition,RPS6KA6 KD1 KD2 (human); compound 4.0 µM,97.8%
same,inhibition,TAB1 (human); compound 0.2 µM,83.7%
same,inhibition,TAB1 (human); compound 4.0 µM,101%
same,inhibition,PRKCZ (human); compound 0.2 µM,-1.5%
same,inhibition,PRKCZ (human); compound 4.0 µM,13.5%
same,inhibition,MINK1 (human); compound 0.2 µM,56.6%
same,inhibition,MINK1 (human); compound 4.0 µM,99.7%
same,inhibition,MAP4K2 (human); compound 0.2 µM,69.5%
same,inhibition,STK38L (human); compound 0.2 µM,6.1%
same,inhibition,STK38L (human); compound 4.0 µM,32.7%
same,inhibition,ROCK1 (human); compound 0.2 µM,8.9%
same,inhibition,ROCK1 (human); compound 4.0 µM,55.4%
same,inhibition,AKT1 (human); compound 0.2 µM,-0.8%
same,inhibition,AKT1 (human); compound 4.0 µM,35.7%
same,inhibition,PHKG1 (human); compound 0.2 µM,91.8%
same,inhibition,PHKG1 (human); compound 4.0 µM,96.9%
same,inhibition,PHKG2 (human); compound 0.2 µM,85.2%
same,inhibition,PHKG2 (human); compound 4.0 µM,99%
same,inhibition,RPS6KA5 KD1 KD2 (human); compound 0.2 µM,18.2%
same,inhibition,RPS6KA5 KD1 KD2 (human); compound 4.0 µM,73.3%
same,inhibition,STK10 (human); compound 0.2 µM,62.1%
same,inhibition,TEK (human); compound 0.2 µM,-3.6%
same,inhibition,TEK (human); compound 4.0 µM,15.3%
same,inhibition,NIM1 (human); compound 0.2 µM,17.9%
same,inhibition,NIM1 (human); compound 4.0 µM,67.1%
same,inhibition,SPHK1 (human); compound 0.2 µM,-10.4%
same,inhibition,SPHK1 (human); compound 4.0 µM,-9.1%
same,inhibition,NEK2 (human); compound 0.2 µM,8.3%
same,inhibition,NEK2 (human); compound 4.0 µM,49.2%
same,inhibition,PRKACA (human); compound 0.2 µM,0.6%
same,inhibition,PRKACA (human); compound 4.0 µM,49%
same,inhibition,FRK (human),29.7%
same,inhibition,TBK1 (human); compound 0.2 µM,28.1%
same,inhibition,TBK1 (human); compound 4.0 µM,87.5%
same,inhibition,ALK NPM1 (human); compound 0.2 µM,76%
same,inhibition,ALK NPM1 (human); compound 4.0 µM,100%
same,inhibition,SGK1 (human); compound 0.2 µM,28.6%
same,inhibition,SGK1 (human); compound 4.0 µM,87.8%
same,inhibition,CLK2 (human); compound 0.2 µM,78.3%
same,inhibition,CLK2 (human); compound 4.0 µM,97.2%
